Measurements: ChEMBL document CHEMBL5291721, “A preclinical secondary pharmacology resource illuminates target-adverse drug reaction associations of marketed drugs” (Nat Commun, 2023)

Tests used:
Acetylcholinesterase = Acetylcholinesterase (Homo sapiens, UniProt P22303); assay type: functional
[1] = molecular target: T1, Alpha-1A adrenergic receptor (Homo sapiens, UniProt P35348); assay type: functional, cell-based
T1 sequence (P35348 whole entry): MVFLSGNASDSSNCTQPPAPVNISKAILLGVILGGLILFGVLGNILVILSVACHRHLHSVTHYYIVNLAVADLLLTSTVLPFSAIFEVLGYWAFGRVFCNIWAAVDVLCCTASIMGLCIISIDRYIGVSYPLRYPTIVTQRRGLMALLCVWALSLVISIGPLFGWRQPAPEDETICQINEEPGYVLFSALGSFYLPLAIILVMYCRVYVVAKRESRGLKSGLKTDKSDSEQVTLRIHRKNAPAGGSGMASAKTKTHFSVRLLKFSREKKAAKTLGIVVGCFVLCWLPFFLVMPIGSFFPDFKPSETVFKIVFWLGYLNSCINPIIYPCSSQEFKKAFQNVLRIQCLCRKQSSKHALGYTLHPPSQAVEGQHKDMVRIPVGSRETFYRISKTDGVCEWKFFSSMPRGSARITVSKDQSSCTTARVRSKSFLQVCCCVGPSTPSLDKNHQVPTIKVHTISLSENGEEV

[2] = molecular target: T1, Alpha-1A adrenergic receptor; assay type: functional, cell-based; remark: listed apart in the source
D(1A) dopamine receptor = D(1A) dopamine receptor (Homo sapiens, UniProt P21728)
Estrogen receptor = molecular target: T2, Estrogen receptor (Homo sapiens, UniProt P03372)
T2 sequence (P03372 whole entry): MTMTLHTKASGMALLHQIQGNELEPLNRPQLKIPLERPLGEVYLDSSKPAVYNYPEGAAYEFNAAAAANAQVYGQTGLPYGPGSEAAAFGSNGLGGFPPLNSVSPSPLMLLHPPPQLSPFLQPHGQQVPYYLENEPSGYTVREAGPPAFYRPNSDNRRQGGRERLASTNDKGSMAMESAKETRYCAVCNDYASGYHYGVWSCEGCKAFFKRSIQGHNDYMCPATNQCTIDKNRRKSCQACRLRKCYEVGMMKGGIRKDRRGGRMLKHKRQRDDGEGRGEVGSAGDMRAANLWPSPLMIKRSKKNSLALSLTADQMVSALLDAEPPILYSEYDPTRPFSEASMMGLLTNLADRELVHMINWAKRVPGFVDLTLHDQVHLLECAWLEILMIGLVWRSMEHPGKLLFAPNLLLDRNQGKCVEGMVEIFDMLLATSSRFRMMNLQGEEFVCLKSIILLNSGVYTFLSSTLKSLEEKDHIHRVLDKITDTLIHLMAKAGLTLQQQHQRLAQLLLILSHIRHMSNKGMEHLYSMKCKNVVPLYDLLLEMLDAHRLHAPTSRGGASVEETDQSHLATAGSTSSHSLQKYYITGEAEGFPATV

[3] = molecular target: Gamma-aminobutyric acid receptor subunit alpha-1 (Rattus norvegicus, UniProt P62813)
[4] = molecular target: Voltage-gated inwardly rectifying potassium channel KCNH2 (Homo sapiens, UniProt Q12809); assay type: functional; conditions: read-out: AC50
[5] = molecular target: T3, Amine oxidase [flavin-containing] A (Homo sapiens, UniProt P21397); assay type: functional
T3 sequence (P21397 whole entry): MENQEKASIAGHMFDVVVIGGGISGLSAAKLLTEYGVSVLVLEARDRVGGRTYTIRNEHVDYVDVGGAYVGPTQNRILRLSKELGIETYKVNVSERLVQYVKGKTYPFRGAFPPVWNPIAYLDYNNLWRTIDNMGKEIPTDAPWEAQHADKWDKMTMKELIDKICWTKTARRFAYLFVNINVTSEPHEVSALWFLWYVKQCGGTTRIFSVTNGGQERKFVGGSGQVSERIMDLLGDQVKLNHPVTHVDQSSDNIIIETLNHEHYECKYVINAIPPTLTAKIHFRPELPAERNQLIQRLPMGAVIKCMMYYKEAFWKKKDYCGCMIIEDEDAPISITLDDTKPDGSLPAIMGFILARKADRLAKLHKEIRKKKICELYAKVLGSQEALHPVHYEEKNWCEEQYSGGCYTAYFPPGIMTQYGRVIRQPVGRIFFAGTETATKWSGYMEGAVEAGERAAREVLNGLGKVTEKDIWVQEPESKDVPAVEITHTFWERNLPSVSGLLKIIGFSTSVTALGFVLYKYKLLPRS

Mu-type opioid receptor = Mu-type opioid receptor (Homo sapiens, UniProt P35372)
[6] = molecular target: Prostaglandin G/H synthase 1 (Homo sapiens, UniProt P23219); assay type: functional
[7] = molecular target: Sodium-dependent noradrenaline transporter (Homo sapiens, UniProt P23975)
[8] = molecular target: Sodium-dependent dopamine transporter (Homo sapiens, UniProt Q01959)
[9] = molecular target: Sodium-dependent serotonin transporter (Homo sapiens, UniProt P31645)
Thromboxane A2 receptor [10] = molecular target: T4, Thromboxane A2 receptor (Homo sapiens, UniProt P21731); assay type: functional, cell-based
T4 sequence (P21731 whole entry): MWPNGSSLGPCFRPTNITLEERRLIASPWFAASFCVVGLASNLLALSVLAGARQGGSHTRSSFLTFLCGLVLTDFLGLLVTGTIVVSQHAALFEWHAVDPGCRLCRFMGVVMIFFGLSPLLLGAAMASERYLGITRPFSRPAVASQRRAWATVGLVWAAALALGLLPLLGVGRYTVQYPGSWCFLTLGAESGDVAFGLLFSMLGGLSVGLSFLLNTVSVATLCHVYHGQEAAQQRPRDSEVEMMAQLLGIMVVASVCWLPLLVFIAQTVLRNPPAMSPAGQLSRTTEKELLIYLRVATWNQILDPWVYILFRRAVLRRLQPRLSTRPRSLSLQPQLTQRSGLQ

Thromboxane A2 receptor [11] = molecular target: T4, Thromboxane A2 receptor; assay type: functional, cell-based; remark: listed apart in the source
D(3) dopamine receptor = D(3) dopamine receptor (Homo sapiens, UniProt P35462)
Note: assay procedure not described here.

Sequence of Sodium-dependent dopamine transporter (Q01959 whole entry): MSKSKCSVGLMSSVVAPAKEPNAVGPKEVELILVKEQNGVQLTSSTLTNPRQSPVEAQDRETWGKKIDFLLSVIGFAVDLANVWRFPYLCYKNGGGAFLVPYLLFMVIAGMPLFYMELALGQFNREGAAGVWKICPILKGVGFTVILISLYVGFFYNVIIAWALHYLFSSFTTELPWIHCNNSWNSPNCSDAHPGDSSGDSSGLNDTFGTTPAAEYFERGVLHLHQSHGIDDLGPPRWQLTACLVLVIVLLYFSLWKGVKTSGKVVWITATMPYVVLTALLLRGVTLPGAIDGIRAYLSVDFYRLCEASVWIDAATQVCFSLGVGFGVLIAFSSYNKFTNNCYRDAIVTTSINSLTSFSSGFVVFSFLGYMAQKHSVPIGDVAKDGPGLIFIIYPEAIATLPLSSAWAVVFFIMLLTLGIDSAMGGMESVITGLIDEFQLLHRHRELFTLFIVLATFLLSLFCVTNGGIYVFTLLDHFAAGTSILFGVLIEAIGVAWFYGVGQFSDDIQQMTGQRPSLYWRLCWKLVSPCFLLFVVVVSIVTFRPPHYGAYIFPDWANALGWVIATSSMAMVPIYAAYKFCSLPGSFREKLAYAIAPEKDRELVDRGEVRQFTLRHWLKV
Sequence of Prostaglandin G/H synthase 1 (P23219 whole entry): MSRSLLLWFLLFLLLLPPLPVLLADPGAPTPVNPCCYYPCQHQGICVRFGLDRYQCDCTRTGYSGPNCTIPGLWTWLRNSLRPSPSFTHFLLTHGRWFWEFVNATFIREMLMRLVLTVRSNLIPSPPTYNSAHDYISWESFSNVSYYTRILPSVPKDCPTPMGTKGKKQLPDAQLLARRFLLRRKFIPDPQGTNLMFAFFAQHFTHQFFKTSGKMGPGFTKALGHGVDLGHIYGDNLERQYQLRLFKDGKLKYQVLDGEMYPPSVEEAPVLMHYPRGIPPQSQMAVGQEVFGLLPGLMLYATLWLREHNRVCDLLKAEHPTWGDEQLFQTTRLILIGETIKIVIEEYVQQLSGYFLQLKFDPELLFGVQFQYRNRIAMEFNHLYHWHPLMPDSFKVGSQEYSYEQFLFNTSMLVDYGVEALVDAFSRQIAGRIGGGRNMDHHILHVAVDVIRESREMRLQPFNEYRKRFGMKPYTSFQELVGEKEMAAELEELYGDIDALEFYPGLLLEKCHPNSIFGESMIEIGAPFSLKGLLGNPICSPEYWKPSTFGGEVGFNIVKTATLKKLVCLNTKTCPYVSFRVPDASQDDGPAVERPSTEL
Sequence of Sodium-dependent serotonin transporter (P31645 whole entry): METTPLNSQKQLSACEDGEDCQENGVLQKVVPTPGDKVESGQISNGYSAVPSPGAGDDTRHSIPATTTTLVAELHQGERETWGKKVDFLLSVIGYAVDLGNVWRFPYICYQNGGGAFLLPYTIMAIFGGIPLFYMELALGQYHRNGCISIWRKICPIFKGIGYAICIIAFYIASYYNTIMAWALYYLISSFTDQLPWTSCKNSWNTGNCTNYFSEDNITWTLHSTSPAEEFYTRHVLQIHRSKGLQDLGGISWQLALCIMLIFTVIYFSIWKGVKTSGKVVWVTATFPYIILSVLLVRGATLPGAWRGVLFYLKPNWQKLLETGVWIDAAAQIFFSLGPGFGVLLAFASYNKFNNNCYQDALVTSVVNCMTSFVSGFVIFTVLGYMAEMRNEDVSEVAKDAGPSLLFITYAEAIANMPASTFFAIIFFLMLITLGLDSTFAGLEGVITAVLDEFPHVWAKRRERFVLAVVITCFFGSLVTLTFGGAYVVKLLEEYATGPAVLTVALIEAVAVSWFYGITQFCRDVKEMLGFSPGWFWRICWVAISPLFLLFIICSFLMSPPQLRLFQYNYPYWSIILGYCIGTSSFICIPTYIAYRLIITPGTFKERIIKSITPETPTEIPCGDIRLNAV
Sequence of Sodium-dependent noradrenaline transporter (P23975 whole entry): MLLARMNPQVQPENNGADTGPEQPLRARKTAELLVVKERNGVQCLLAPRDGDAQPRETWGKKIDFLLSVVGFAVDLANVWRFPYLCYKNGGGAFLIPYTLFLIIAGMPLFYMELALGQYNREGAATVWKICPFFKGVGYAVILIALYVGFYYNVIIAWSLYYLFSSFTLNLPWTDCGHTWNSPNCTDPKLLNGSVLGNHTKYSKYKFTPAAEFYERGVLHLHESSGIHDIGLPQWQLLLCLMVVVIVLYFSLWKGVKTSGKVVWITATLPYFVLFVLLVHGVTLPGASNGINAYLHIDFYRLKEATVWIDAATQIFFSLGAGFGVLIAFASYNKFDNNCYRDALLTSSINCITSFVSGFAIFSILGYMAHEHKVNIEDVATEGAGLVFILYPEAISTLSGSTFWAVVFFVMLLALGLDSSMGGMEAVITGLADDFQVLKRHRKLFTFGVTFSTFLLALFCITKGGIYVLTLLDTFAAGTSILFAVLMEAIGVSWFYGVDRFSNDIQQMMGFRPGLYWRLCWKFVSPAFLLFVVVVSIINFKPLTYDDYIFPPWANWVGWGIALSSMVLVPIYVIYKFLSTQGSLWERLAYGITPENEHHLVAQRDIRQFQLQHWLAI
Sequence of D(3) dopamine receptor (P35462 whole entry): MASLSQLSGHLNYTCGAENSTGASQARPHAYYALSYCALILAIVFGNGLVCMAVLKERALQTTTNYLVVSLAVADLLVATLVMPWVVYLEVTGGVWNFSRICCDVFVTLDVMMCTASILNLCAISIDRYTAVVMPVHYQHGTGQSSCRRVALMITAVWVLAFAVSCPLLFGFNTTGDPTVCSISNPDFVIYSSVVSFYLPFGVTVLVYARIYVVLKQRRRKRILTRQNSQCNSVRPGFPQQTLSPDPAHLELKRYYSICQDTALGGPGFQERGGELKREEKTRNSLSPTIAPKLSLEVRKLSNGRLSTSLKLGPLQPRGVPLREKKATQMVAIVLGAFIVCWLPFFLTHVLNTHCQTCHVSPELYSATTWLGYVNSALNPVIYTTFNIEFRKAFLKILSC
Sequence of D(1A) dopamine receptor (P21728 whole entry): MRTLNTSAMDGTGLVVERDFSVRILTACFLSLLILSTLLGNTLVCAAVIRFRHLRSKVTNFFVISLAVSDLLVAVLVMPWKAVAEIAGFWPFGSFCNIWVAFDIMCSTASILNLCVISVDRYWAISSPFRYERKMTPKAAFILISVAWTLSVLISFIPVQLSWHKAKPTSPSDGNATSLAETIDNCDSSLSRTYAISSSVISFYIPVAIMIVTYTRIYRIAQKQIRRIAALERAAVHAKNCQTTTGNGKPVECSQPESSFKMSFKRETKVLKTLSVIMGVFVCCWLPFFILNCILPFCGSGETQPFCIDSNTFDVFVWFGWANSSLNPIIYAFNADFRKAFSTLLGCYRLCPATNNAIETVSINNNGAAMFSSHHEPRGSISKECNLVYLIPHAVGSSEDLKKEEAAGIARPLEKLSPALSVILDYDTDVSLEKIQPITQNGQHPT
Sequence of Gamma-aminobutyric acid receptor subunit alpha-1 (P62813 whole entry): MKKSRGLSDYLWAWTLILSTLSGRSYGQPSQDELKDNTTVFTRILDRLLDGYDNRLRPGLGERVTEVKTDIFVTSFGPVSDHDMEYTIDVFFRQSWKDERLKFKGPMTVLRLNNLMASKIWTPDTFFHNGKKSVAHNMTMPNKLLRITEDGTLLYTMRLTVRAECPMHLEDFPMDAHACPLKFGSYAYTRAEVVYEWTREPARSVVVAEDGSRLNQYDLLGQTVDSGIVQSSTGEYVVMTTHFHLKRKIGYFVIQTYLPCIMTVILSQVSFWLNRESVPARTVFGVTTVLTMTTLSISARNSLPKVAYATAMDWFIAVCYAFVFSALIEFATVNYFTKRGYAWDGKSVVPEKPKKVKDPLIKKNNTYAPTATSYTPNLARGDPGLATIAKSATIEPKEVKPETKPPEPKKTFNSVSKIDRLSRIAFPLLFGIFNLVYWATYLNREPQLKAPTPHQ
Sequence of Mu-type opioid receptor (P35372 whole entry): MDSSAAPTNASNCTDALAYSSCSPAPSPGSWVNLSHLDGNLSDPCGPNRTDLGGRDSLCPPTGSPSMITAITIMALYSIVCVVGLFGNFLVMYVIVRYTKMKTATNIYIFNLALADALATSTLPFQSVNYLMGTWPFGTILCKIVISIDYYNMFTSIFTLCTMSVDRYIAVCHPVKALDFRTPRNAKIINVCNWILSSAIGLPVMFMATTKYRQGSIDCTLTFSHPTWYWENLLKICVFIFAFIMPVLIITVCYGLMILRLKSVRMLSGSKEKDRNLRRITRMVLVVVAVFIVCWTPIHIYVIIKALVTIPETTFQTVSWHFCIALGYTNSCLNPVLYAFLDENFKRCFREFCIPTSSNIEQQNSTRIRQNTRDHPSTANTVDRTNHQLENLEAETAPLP
Sequence of Acetylcholinesterase (P22303 whole entry): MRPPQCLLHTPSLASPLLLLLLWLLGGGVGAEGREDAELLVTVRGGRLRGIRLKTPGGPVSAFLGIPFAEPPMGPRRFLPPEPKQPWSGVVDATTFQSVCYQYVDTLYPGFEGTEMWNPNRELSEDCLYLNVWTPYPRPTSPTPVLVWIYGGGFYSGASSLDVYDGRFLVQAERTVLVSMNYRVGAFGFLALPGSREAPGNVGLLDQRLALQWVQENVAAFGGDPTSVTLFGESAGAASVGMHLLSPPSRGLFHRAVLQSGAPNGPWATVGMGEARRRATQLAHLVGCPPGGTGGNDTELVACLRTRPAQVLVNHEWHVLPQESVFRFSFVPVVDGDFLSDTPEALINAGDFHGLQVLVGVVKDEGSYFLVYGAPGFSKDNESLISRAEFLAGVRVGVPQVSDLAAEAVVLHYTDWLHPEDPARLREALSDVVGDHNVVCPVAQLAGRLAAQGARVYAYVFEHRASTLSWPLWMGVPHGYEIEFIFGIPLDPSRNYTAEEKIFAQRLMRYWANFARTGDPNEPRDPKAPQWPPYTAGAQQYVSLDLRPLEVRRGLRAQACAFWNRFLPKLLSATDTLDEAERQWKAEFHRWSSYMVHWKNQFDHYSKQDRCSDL

SMILES | AC50 (Acetylcholinesterase) [µM] | AC50 [1] [µM] | AC50 [2] [µM] | AC50 (D(1A) dopamine receptor) [µM] | AC50 (Estrogen receptor) [µM] | AC50 [3] [µM] | AC50 [4] [µM] | AC50 [5] [µM] | AC50 (Mu-type opioid receptor) [µM] | AC50 [6] [µM] | AC50 [7] [µM] | AC50 [8] [µM] | AC50 [9] [µM] | AC50 (Thromboxane A2 receptor [10]) [µM] | AC50 (Thromboxane A2 receptor [11]) [µM] | AC50 (D(3) dopamine receptor) [µM]
NS(=O)(=O)c1cc2c(cc1Cl)NC(C1CC3C=CC1C3)NS2(=O)=O (centres undefined) [CYCLOTHIAZIDE] | > 30 | > 30 | > 30 | > 30 | > 30 | > 30 | > 30 | > 30 | > 30 | > 30 | > 30 | > 30 | > 30 | > 30 | > 30 | –
O=C(c1ccc(F)c(F)c1Nc1ccc(I)cc1F)N1CC(O)([C@@H]2CCCCN2)C1 [COBIMETINIB] | > 30 | > 30 | 13.6 | 24.1 | > 30 | > 30 | – | > 30 | 0.271 | > 30 | 16.9 | 7.3 | 7.82 | 17.6 | > 3 | 24.1
C[C@@H]1C[C@H]2[C@@H]3C[C@H](F)C4=CC(=O)C(Cl)=C[C@]4(C)[C@@]3(F)[C@@H](O)C[C@]2(C)[C@@]1(O)C(=O)CO [HALOMETASONE] | > 30 | > 30 | 23.3 | > 30 | > 30 | > 30 | > 30 | > 30 | > 30 | > 30 | > 30 | > 30 | > 30 | > 30 | 18.6 | –
NCc1ccccc1CC(=O)N[C@@H]1C(=O)N2C(C(=O)O)=C(CSc3nnnn3CC(=O)O)CS[C@H]12 [CEFORANIDE] | > 30 | > 30 | > 30 | > 30 | > 30 | > 30 | – | > 30 | > 30 | > 30 | > 30 | > 30 | > 30 | > 30 | > 30 | > 30
CN1C(=O)N(C)C2C1N(C)C(=O)N2C (centres undefined) [MEBICAR] | > 30 | – | – | > 30 | > 30 | > 30 | > 30 | > 30 | > 30 | > 30 | > 30 | > 30 | > 30 | > 30 | > 30 | > 30
N/N=c1/cc2c(n[nH]1)CCN(C(=O)c1ccccc1)C2 [ENDRALAZINE] | > 30 | – | – | > 30 | > 30 | > 30 | > 30 | > 30 | > 30 | > 30 | > 30 | > 30 | > 30 | > 30 | > 30 | > 30
O=[N+]([O-])c1cncn1CCN1CCOCC1 [NIMORAZOLE] | > 30 | > 30 | > 30 | > 30 | > 30 | > 30 | – | > 30 | > 30 | > 30 | > 30 | > 30 | > 30 | > 30 | > 30 | > 30
CCS(=O)(=O)N1CC(CC#N)(n2cc(-c3ncnc4[nH]ccc34)cn2)C1 [BARICITINIB] | > 10 | > 30 | > 10 | > 30 | > 30 | > 30 | – | > 30 | > 30 | > 30 | > 30 | > 30 | > 30 | > 30 | > 10 | > 30
Nc1ccc(/N=N/c2ccccc2)c(N)n1 [PHENAZOPYRIDINE] | > 3 | – | – | 9.35 | > 30 | > 30 | 14 | > 30 | > 30 | > 30 | 3.85 | 4.71 | > 30 | > 30 | 28.4 | > 30
CCC1C(C)=NN=C(c2ccc(OC)c(OC)c2)c2cc(OC)c(OC)cc21 (centres undefined) [TOFISOPAM] | > 30 | > 30 | > 30 | > 30 | > 30 | > 30 | > 30 | > 30 | > 30 | > 30 | > 30 | > 30 | > 30 | > 30 | > 30 | –
COCC1=C(C(=O)OC(C)OC(=O)OC(C)C)N2C(=O)[C@@H](NC(=O)/C(=N\OC)c3csc(N)n3)[C@H]2SC1 (some centres undefined) [CEFPODOXIME PROXETIL] | > 30 | – | – | > 30 | > 30 | > 30 | > 30 | > 30 | > 30 | 18.1 | > 30 | > 30 | > 30 | > 30 | > 30 | > 30
COc1cc2c(cc1OC)[C@H]1C[C@@H](OC(=O)[C@@H](N)C(C)C)[C@H](CC(C)C)CN1CC2 [VALBENAZINE] | > 30 | > 30 | > 30 | > 30 | > 30 | > 30 | – | > 30 | 21.6 | 5.44 | > 30 | > 30 | > 30 | > 30 | 13.9 | > 30
O=C(Cn1ccnc1[N+](=O)[O-])NCc1ccccc1 [BENZNIDAZOLE] | > 30 | – | – | > 30 | > 30 | > 30 | – | > 30 | > 30 | > 30 | > 30 | > 30 | > 30 | > 30 | > 30 | > 30
